Like-named read-outs stand apart in the source and are kept apart here. Where a SMILES comes first, the peptide text is derived from it. Bridges are numbered along the chain shown (N, C = ends). [ ]: non-standard residue; d: D form. The star is where a group is joined. 2Nal = N[C@@H](Cc1ccc2ccccc2c1)C(=O)O; Benzoyl(4-F) = O=C(c1ccc(F)cc1)*; Cit = NC(=O)NCCC[C@H](N)C(=O)O
What was measured:
Assay type in all cases: cell-based
CXCR4 = biological target: T1, CXCR4 (Homo sapiens, UniProt P61073); assay: Calcium mobilization assay in MDA-MB-231 cells expressing CXCR4 alone; conditions: cells expressing CXCR4 alone; CXCR4 inhibitor only; stimulated with CXCL12 20 nM and Salmeterol 1 μM; read-out: CXCR4 IC50 of Ca2+ response
T1 construct: expressed in transfected cells
T1 sequence (P61073 whole entry): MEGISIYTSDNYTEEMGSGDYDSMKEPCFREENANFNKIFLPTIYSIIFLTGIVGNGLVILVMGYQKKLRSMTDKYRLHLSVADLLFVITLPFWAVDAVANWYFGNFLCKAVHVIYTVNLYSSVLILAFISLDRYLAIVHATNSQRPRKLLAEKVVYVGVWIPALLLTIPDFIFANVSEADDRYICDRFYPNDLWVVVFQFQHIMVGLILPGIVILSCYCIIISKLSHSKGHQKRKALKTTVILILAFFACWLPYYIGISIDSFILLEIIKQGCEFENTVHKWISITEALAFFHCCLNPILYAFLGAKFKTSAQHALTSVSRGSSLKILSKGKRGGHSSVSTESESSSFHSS
Protocol: The cells were then stained with Cal-6 for 2 hours and stimulated with CXCR4 agonsit (CXCL12; 20 nM) and ADRB2 agonist (Salmeterol; 1 μM).

CXCR4-MLNR heteromer = biological target: T2, CXCR4-MLNR heteromer (Homo sapiens, UniProt O43193+P61073); assay: Calcium mobilization assay, enhanced signaling of CXCR4-MLNR heteromer in MDA-MB-231 cells; conditions: CXCR4 inhibitor only; CXCL12 20 nM and motilin 0.2 nM; read-out: IC50 of Ca2+ response, MLNR inhibitor: None
T2 construct: expressed in transfected cells
T2 sequence (P61073 whole entry): as above
T2 sequence (O43193 whole entry): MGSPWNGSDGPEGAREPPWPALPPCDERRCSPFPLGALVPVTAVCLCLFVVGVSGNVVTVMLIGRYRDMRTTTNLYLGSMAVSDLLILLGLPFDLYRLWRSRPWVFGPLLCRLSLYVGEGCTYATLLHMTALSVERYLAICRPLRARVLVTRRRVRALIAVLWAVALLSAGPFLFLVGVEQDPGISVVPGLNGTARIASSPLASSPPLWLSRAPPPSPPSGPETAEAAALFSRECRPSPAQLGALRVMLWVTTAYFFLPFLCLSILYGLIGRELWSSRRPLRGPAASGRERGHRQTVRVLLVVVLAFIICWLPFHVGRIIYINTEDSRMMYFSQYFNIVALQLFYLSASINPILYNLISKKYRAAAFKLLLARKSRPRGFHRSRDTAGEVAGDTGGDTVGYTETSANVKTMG
Protocol: (§1) Inhibitors were treated 30 min before agonist stimulation. Ca2+ mobilization was measured as described in FIG. 5, and IC50 values were calculated using GraphPad Prism software.

CXCR4-TACR3 heteromer = biological target: T3, CXCR4-TACR3 heteromer (Homo sapiens, UniProt P29371+P61073); assay: Calcium mobilization assay, enhanced signaling of CXCR4-TACR3 heteromer in MDA-MB-231 cells; conditions: CXCR4 inhibitor only; CXCL12 20 nM and neurokinin B 0.3 nM; read-out: IC50 of Ca2+ response, TACR3 inhibitor: None
T3 construct: expressed in transfected cells
T3 sequence (P61073 whole entry): as the sequence (P61073 whole entry) above
T3 sequence (P29371 whole entry): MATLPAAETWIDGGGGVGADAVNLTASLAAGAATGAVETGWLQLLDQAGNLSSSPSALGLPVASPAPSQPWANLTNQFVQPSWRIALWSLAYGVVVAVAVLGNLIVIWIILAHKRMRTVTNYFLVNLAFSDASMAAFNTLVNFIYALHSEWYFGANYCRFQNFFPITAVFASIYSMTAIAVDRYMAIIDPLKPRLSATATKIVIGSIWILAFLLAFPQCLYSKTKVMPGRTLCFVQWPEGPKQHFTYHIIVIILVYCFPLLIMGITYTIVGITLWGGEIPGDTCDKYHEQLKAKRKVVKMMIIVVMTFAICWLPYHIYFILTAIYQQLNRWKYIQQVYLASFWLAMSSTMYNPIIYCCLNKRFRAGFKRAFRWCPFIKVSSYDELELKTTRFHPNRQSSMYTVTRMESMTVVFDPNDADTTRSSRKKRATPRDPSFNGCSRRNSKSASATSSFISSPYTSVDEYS
Protocol: as §1

CXCR4-CALCR heteromer = CXCR4-CALCR heteromer (Homo sapiens, UniProt P30988+P61073); assay: Calcium mobilization assay, enhanced signaling of CXCR4-CALCR heteromer in MDA-MB-231 cells; conditions: CXCR4 inhibitor only; CXCL12 20 nM and calcitonin 100 nM; read-out: IC50 of Ca2+ response, CALCR inhibitor: None
Sequence of CXCR4-CALCR heteromer (P61073 whole entry): as the sequence (P61073 whole entry) above
Sequence of CXCR4-CALCR heteromer (P30988 25-474): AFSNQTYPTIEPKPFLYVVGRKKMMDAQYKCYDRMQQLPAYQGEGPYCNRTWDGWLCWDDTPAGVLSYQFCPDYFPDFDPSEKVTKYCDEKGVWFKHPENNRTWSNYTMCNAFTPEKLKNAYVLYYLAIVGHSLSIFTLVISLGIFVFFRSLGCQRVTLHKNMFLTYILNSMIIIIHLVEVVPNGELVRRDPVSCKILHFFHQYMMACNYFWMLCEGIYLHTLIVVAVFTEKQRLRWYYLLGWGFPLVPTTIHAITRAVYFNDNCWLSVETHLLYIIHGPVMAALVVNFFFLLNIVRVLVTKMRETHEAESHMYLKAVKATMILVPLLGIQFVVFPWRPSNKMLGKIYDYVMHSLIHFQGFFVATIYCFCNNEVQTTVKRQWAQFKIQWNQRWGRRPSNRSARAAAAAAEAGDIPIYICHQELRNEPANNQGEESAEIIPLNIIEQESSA
Protocol: as §1

CXCR4-EDNRB heteromer = biological target: T4, CXCR4-EDNRB heteromer (Homo sapiens, UniProt P24530+P61073); assay: Calcium mobilization assay, enhanced signaling of CXCR4-EDNRB heteromer in MDA-MB-231 cells; conditions: CXCR4 inhibitor only; CXCL12 20 nM and BQ3020 0.5 nM; read-out: IC50 of Ca2+ response, EDNRB inhibitor: None
T4 construct: expressed in transfected cells
T4 sequence (P61073 whole entry): as the sequence (P61073 whole entry) above
T4 sequence (P24530 27-442): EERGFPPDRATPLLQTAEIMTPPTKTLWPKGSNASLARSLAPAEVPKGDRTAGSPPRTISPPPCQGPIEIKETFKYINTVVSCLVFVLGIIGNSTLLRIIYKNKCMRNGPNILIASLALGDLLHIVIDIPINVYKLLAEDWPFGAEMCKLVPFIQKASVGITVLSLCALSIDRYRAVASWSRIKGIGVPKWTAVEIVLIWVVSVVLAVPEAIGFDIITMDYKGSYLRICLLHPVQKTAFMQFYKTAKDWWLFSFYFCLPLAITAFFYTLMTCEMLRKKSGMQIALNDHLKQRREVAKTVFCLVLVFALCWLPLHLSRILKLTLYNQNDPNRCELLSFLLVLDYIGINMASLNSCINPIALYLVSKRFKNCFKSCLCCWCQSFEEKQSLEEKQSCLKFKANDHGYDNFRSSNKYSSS
Protocol: (§2) The efficiency of CXCR4 inhibitors in suppressing the enhanced signaling of CXCR4-EDNRB heteromer was measured in the absence or presence of the representative EDNRB inhibitors ambrisentan or bosentan (Table 12). […] Inhibitors were treated 30 min before agonist stimulation. Ca2+ mobilization was measured as described in FIG. 5, and IC50 values were calculated using GraphPad Prism software.

CXCR4-ADRB2 heteromer = biological target: T5, CXCR4-ADRB2 heteromer (Homo sapiens, UniProt P07550+P61073); assay: Calcium mobilization assay, enhanced signaling of CXCR4-ADRB2 heteromer in MDA-MB-231 cells; conditions: CXCR4 inhibitor only
T5 construct: expressed in transfected cells
T5 sequence (P61073 whole entry): as the sequence (P61073 whole entry) above
T5 sequence (P07550 whole entry): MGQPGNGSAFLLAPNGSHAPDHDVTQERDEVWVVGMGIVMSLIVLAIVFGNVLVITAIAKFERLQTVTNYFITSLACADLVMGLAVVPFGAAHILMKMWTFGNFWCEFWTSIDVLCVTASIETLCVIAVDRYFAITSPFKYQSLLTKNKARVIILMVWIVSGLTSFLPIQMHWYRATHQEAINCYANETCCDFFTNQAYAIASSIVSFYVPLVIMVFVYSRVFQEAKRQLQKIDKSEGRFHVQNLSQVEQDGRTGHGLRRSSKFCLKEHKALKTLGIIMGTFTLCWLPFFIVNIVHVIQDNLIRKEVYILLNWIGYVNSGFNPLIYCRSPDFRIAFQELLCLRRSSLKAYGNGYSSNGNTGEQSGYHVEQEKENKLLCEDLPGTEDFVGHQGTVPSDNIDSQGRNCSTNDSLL

CXCR4-HRH1 heteromer = biological target: T6, CXCR4-HRH1 heteromer (Homo sapiens, UniProt P35367+P61073); assay: Calcium mobilization assay, enhanced signaling of CXCR4-HRH1 heteromer in MDA-MB-231 cells; conditions: CXCR4 inhibitor only; CXCL12 20 nM and Histamine 1 nM; read-out: IC50 of Ca2+ response, HRH1 inhibitor: None
T6 construct: expressed in transfected cells
T6 sequence (P61073 whole entry): as the sequence (P61073 whole entry) above
T6 sequence (P35367 whole entry): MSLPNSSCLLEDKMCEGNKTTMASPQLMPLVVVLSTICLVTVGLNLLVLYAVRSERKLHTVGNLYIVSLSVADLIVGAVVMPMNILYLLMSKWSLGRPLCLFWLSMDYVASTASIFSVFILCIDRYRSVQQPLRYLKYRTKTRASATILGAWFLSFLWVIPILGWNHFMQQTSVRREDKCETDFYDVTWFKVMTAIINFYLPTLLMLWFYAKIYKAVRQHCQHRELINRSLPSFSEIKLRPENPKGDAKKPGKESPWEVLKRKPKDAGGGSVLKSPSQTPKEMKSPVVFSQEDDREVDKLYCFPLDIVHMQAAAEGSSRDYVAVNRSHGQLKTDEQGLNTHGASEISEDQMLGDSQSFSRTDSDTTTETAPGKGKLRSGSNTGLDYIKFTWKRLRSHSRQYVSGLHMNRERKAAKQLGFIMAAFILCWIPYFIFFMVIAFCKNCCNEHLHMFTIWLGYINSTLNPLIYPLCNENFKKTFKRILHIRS
Protocol: as §2, with “CXCR4-HRH1” for “CXCR4-EDNRB”, “HRH1” for “EDNRB”, “Hydroxyzine, Prometazine,” for “ambrisentan”, “Cyproheptadine” for “bosentan”, “8).” for “12).”

CXCR4-C5AR1 heteromer = biological target: T7, CXCR4-C5AR1 heteromer (Homo sapiens, UniProt P21730+P61073); assay: Calcium mobilization assay, enhanced signaling of CXCR4-C5AR1 heteromer in MDA-MB-231 cells; conditions: CXCR4 inhibitor only; CXCL12 20 nM and C5a 0.03 nM; read-out: IC50 of Ca2+ response, C5AR1 inhibitor: None
T7 construct: expressed in transfected cells
T7 sequence (P61073 whole entry): as the sequence (P61073 whole entry) above
T7 sequence (P21730 whole entry): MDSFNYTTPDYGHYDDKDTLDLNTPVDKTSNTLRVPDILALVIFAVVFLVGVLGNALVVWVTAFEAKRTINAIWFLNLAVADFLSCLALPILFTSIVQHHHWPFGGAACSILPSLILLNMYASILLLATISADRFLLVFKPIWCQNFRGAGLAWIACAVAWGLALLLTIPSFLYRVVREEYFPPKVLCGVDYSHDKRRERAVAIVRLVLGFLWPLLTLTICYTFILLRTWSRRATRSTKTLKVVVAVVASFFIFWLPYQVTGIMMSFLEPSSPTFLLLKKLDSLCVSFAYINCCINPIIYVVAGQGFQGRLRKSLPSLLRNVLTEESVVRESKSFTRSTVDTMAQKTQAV
Protocol: as §1

[1] = biological target: CXCR4-ADCYAP1R1 heteromer (Homo sapiens, UniProt P41586+P61073); assay: Calcium mobilization assay, enhanced signaling of CXCR4-ADCYAP1R1 heteromer in MDA-MB-231 cells; conditions: CXCR4 inhibitor only; CXCL12 20 nM and PACAP-38 1 nM; read-out: IC50 of Ca2+ response, ADCYAP1R1 inhibitor: None
Sequence of CXCR4-ADCYAP1R1 heteromer (P61073 whole entry): as the sequence (P61073 whole entry) above
Sequence of CXCR4-ADCYAP1R1 heteromer (P41586 21-468): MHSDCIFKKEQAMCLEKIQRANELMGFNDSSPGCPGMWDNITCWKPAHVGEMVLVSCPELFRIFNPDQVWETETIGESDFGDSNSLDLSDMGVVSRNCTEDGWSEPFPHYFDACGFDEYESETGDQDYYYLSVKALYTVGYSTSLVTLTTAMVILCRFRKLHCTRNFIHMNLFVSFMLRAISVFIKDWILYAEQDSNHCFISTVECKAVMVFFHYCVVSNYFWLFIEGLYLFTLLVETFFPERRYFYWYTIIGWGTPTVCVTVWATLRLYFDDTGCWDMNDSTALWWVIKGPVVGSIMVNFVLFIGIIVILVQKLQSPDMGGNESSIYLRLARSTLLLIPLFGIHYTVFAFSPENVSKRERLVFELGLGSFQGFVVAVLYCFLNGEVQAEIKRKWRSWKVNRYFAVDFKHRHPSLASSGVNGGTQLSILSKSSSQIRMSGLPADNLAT
Protocol: as §1

N=C(N)NCCC[C@H](NC(=O)[C@@H]1CSSC[C@H](NC(=O)[C@H](Cc2ccc3ccccc3c2)NC(=O)[C@H](CCCNC(=N)N)NC(=O)[C@H](CCCNC(=N)N)NC(=O)c2ccc(F)cc2)C(=O)N[C@@H](Cc2ccc(O)cc2)C(=O)N[C@@H](CCCNC(N)=O)C(=O)N[C@@H](CCCCN)C(=O)N[C@H](CCCCN)C(=O)N2CCC[C@H]2C(=O)N[C@@H](Cc2ccc(O)cc2)C(=O)N[C@@H](CCCNC(=N)N)C(=O)N[C@@H](CCCNC(N)=O)C(=O)N1)C(N)=O [BKT140] ({Benzoyl(4-F)}-RR[2Nal]CY[Cit]K[dK]PYR[Cit]CR-NH2; disulfide 4-13; C-terminus assumed)
IC50 (CXCR4): 434 ± 4.38 nM | IC50 (CXCR4-MLNR heteromer): 644 ± 163 nM | IC50 (CXCR4-TACR3 heteromer): 1500 ± 420 nM | IC50 (CXCR4-CALCR heteromer): 1040 ± 757 nM | IC50 (CXCR4-EDNRB heteromer): 2680 ± 3930 nM | IC50 (CXCR4-ADRB2 heteromer; CXCR4 + ADRB2 (−Carvedilol) IC50 of Ca2+ response, stimulated with CXCL12 20 nM and Salmeterol 1 μM): 130 ± 49.8 nM | IC50 (CXCR4-ADRB2 heteromer; Table 7, CXCL12 20 nM and Salmeterol 1 μM, read-out: IC50 of Ca2+ response, ADRB2 inhibitor: None): 124 ± 76.9 nM | IC50 (CXCR4-HRH1 heteromer): 232 ± 91.9 nM | IC50 (CXCR4-C5AR1 heteromer): 118 ± 56.5 nM | IC50 [1]: 213 ± 143 nM

— patent US11857600B2, “GPCR heteromer inhibitors and uses thereof” (GPCR THERAPEUTICS, INC., priority 2017, dated 2024)
